{"source": "patent US20190350931A1", "about": "“COMBINATION THERAPY” (GlaxoSmithKline Intellectual Property Development Limited, priority 2016, published 2019)", "key": {"PRMT5/MEP50": {"biological_target": "PRMT5/MEP50 (Homo sapiens, UniProt O14744)", "sequence (O14744 whole entry)": "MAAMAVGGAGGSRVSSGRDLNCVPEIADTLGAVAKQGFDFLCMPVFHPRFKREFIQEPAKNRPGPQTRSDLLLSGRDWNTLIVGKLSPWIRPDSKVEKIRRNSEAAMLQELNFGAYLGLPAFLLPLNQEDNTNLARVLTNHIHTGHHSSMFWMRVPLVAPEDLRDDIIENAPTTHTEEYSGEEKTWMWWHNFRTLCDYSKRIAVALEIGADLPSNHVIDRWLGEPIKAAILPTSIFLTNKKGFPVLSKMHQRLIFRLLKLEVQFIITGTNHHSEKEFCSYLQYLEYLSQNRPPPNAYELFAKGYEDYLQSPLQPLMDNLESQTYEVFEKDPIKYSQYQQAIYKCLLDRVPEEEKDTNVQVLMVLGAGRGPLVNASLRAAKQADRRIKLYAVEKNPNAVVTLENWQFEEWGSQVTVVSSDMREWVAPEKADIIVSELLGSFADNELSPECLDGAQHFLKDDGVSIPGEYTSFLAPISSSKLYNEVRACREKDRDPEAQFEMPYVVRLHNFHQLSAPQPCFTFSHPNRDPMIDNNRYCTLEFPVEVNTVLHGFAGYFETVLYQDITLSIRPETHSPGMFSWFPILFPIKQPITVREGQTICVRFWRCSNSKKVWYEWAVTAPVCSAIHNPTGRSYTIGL", "sequence (Q9BQA1 whole entry partner)": "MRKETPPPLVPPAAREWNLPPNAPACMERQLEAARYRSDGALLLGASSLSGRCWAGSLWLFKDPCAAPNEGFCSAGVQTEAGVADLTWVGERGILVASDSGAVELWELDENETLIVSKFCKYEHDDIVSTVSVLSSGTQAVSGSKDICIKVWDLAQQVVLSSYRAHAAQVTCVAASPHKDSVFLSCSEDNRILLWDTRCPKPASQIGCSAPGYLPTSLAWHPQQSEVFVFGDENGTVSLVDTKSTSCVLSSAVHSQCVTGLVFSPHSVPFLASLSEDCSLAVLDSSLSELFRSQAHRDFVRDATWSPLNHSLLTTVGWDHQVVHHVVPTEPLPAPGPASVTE", "assay": "PRMT5/MEP50 radioactive assay, 3H transfer from SAM to H4 peptide / protein substrate", "assay_type": "biochemical", "conditions": "close analogs of Compound C"}, "[1]": {"test_system": "Type I and Type II PRMTs and lysine methyltransferases (KMTs)", "assay": "Methyltransferase selectivity panel (19 enzymes)", "assay_type": "biochemical", "conditions": "for selectivity for PRMT5/MEP50 over the other methyltransferases: PRMT5 tool compounds", "excerpt": "FIG. 6: Phylogenetic tree highlighting the methyltransferases tested in the selectivity panel. […] PRMT9 is shown for relationship purposes only within the family tree and was not evaluated in the panel. Figure adapted from Richon V M. et al.\nPRMT9/FBXO11, which is the other Type II PRMT and the only PRMT to lack the THW loop, was not included due to the lack of a functional enzyme assay."}, "[2]": {"test_system": "breast and MCL cell lines", "assay": "Longer-term (10-12 day) growth/death assay in breast and MCL cell lines", "assay_type": "cell-based", "conditions": "for response upon prolonged exposure: SKBR3, MDA-MB-468 and MCF-7 cells, 7-10 days"}, "[3]": {"test_system": "SDMA, MDM4 splicing, p53 in GBM and lymphoma cell lines", "assay": "SDMA, MDM4 splicing and p53 in GBM and lymphoma cell lines", "assay_type": "cell-based", "conditions": "1 μM", "description": "Next, effects on cellular methylation and the p53 pathway were evaluated in GBM cells treated with a PRMT5 inhibitor by measuring SDMA, p53 and p21 protein levels and MDM4 splicing (FIG. 27). […] Alternative MDM4 splicing was detected in all cell lines but SF539 which are p53 mutant and have low basal expression of the long MDM4 isoform (FIG. 27, panel A). p53 levels increased in all cell lines, while the induction of p21 protein was observed only in cell lines that have wild-type p53 (Z138 (MCL), U87-MG and A172 (GBM)). […] The role of p53 in the response of GBM cell lines to PRMT5 inhibition will be further tested in future studies. Additionally, the effects of PRMT5 inhibition on cell cycle and neural differentiation in GBM models are being explored."}, "[4]": {"test_system": "lymphoma cell lines (Z138, Granta-519, DOHH2, RL)", "assay": "RNA-sequencing of lymphoma cell lines", "assay_type": "cell-based", "description": "FIG. 12: Gene expression changes in lymphoma cell lines treated with a PRMT5 inhibitor. A. Quantification of differentially expressed (DE) genes in lymphoma cell lines after Compound B (0.1 and 0.5 μM) treatment (days 2 and 4). B. Overlap of DE genes across lymphoma lines.\nA. Mechanisms of regulation of cellular splicing (adapted from Bezzi M. et al.). B. Analysis of intron expression in lymphoma lines treated with 0.1 or 0.5 μM Compound B.\nA. Quantification of isoform switches in 4 lymphoma cell lines treated with Compound B (0.1 and 0.5 μM) for 2 and 4 days. B. Overlap of isoform switches in 4 lymphoma lines. C. List of genes that undergo alternative splicing in all 4 lymphoma lines (overlap of 4 cell lines).\nPRMT5 methylates histones and proteins involved in RNA processing and therefore PRMT5 inhibition is expected to have a profound effect on cellular mRNA homeostasis. To further decipher cellular mechanisms that are regulated by PRMT5 and contribute to the cellular response to PRMT5 inhibitors, global gene expression changes were evaluated in lymphoma models sensitive to PRMT5 inhibition. […]\nFirst, gene expression changes were evaluated in lymphoma lines treated with increasing concentrations of PRMT5 tool molecule for 2 and 4 days (FIG. 12). […] The relevance of these genes in the mechanism of cellular response to PRMT5 inhibition is being evaluated. […]"}, "[5]": {"test_system": "panel of cancer cell lines", "assay_type": "cell-based", "excerpt": "DLBCL-diffuse large B-cell lymphoma, GBM-glioblastoma, MCL-mantle cell lymphoma, MM-multiple myeloma\nThe cell lines were selected to represent tumor types where PRMT5 activity has been reported to regulate key pathways and/or cell growth and survival (such as lymphoma and MCL, glioma, breast and lung cancer lines)."}, "MCL cell lines": {"test_system": "MCL cell lines", "assay": "6-day growth/death assay in a panel of MCL lines", "assay_type": "cell-based", "excerpt": "FIG. 18: Activity of PRMT5 inhibitor and ibrutinib as single agents and in combination in MCL cell lines. […] C.\n• The strongest mechanistic link currently described between PRMT5 and cancer is in MCL. PRMT5 is frequently overexpressed in MCL and is highly expressed in the nuclear compartment where it increases levels of histone methylation and silences a subset of tumor suppressor genes. Importantly, cyclin D1, the oncogene that is translocated in the vast majority of MCL patients, associates with PRMT5 and through a cdk4-dependent mechanism increases PRMT5 activity. PRMT5 mediates the suppression of key genes that negatively regulate DNA replication allowing for cyclin D1-dependent neoplastic growth. PRMT5 knockdown inhibits cyclin D1-dependent cell transformation causing death of tumor cells."}, "GBM cell lines [6]": {"test_system": "GBM cell lines", "assay": "2D 6-day growth/death CTG assay in GBM cell lines", "assay_type": "cell-based", "conditions": "with the exception of SF539"}, "[7]": {"test_system": "MDM4 splicing, p53 and p21 in MCL lines", "assay": "MDM4 splicing (RT-PCR) and p53/p21 western in MCL lines", "assay_type": "cell-based", "conditions": "for p53 and p21 expression: Z138 cells, 200 nM Compound C, 5 μM Nutlin-3", "description": "To understand whether p53 activation is associated with MDM4 isoform switching, MDM4 alternative splicing was analyzed. […] The role of the p53 pathway in the biology of the response of p53 wild-type MCL cells to PRMT5 inhibition is being evaluated."}, "[8]": {"test_system": "SDMA, MDM4 splicing, p53/p21 in Z138 cells", "assay": "Dose-response of MDM4 splicing, SDMA and p53/p21 in Z138 cells", "assay_type": "cell-based"}, "Z-138 MCL xenograft": {"test_system": "Z-138 MCL xenograft", "assay": "21-day efficacy study in Z-138 MCL xenograft model", "assay_type": "in vivo", "description": "B. Quantified SDMA western data from tumors harvested at the end of the efficacy study (3 hours post last dose)."}, "breast cancer lines": {"test_system": "breast cancer lines", "assay": "Propidium iodide FACS cell cycle analysis of breast cancer lines", "assay_type": "cell-based"}, "MDA-MB-468 xenograft": {"test_system": "MDA-MB-468 xenograft", "assay": "MDA-MB-468 triple negative breast cancer xenograft model", "assay_type": "in vivo", "description": "Next, the efficacy of PRMT5 inhibition was evaluated in in vivo models of breast cancer."}, "GBM cell lines [9]": {"test_system": "GBM cell lines", "assay": "2D 14-day growth/death CTG assay in GBM cell lines", "assay_type": "cell-based", "conditions": "only SF539 underwent apoptosis"}, "[10]": {"conditions": "Z-138 (MCL) cells, all time points (days 3-10)"}, "[11]": {"conditions": "ZR-75-1 cells, all time points (days 3-12)"}}, "data": [{"smiles": "O=C(NC[C@H](O)CN1CCc2ccccc2C1)c1ccnc(NC2CCC2)c1", "note": "[Compound B]", "values": [{"measurement": "inhibitory potency compared with Compound C", "setting": "PRMT5/MEP50", "result": "similar"}, {"measurement": "selectivity for PRMT5/MEP50 over the other methyltransferases", "setting": "[1]", "result": "Selectivity for PRMT5/MEP50 over the other methyltransferases was also observed"}, {"measurement": "response upon prolonged exposure", "setting": "[2]", "result": "cytotoxic response"}, {"measurement": "response", "setting": "[2]; [10]", "result": "profound overall net cell death"}, {"measurement": "response", "setting": "[2]; [11]", "result": "cytostatic response"}, {"measurement": "MDM4 splicing", "setting": "[3]", "result": "induces alternative splicing of MDM4"}, {"measurement": "SDMA levels", "setting": "[3]", "result": "decreases SDMA levels"}, {"measurement": "p53", "setting": "[3]", "result": "activates p53"}, {"measurement": "isoform switching", "setting": "[4]; 0.1 and 0.5 μM, 2 and 4 days", "result": "induces isoform switching for a subset of genes"}, {"measurement": "intron splicing", "setting": "[4]; 0.1 or 0.5 μM", "result": "attenuates the splicing of a subset of introns"}]}, {"smiles": "CC(=O)N1CCC(Nc2cc(C(=O)NC[C@H](O)CN3CCc4ccccc4C3)ncn2)CC1", "note": "[Compound C]", "values": [{"measurement": "potency for any other tested enzyme", "setting": "[1]; FIG. 6 legend", "result": "> 10^−5 M"}, {"measurement": "growth response of breast cancer cell lines", "setting": "[5]; 6-day growth/death assay", "result": "complete growth inhibition"}, {"measurement": "gIC50", "setting": "[5]; most sensitive lymphoma lines (MCL and DLBCL)", "result": "single digit"}, {"measurement": "sensitivity (gIC50) of Z-138, Maver-1 and JVM-2", "setting": "MCL cell lines", "result": "low"}, {"measurement": "sensitivity of Mino, Jeko-1", "setting": "MCL cell lines", "result": "only moderately sensitive"}, {"measurement": "nature of the response", "setting": "GBM cell lines [6]", "result": "largely cytostatic"}, {"measurement": "MDM4 isoform switching", "setting": "[7]; Z138 and JVM-2 cells (both p53 wild-type)", "result": "induced MDM4 isoform switching"}, {"measurement": "p53 and p21 expression", "setting": "[7]", "result": "increased p53 and p21 expression to similar levels"}, {"measurement": "MDM4 RNA splicing and SDMA/p53/p21 levels", "setting": "[8]", "result": "induces dose-dependent changes"}, {"measurement": "concentration above which SDMA levels were undetectable by Western blot", "setting": "[8]", "result": "above 8 nM"}, {"measurement": "concentration above which changes in MDM4 splicing and p53/p21 protein expression were apparent", "setting": "[8]", "result": "above 8 nM"}, {"measurement": "body weight loss", "setting": "Z-138 MCL xenograft; all groups in all efficacy studies presented", "result": "no body weight loss"}, {"measurement": "TGI", "setting": "Z-138 MCL xenograft; summary for the xenograft models of mantle cell lymphoma", "result": "~100", "unit": "%"}, {"measurement": "response upon prolonged exposure", "setting": "[2]", "result": "cytotoxic response"}, {"measurement": "response", "setting": "[2]; [10]", "result": "profound overall net cell death"}, {"measurement": "response", "setting": "[2]; [11]", "result": "cytostatic response"}, {"measurement": "cell death (increase in <2N)", "setting": "breast cancer lines; 3 out of 4 breast cancer lines, after 7-10 days of treatment", "result": "induction of cell death"}, {"measurement": "cell cycle distribution", "setting": "breast cancer lines; MCF-7 cells (p53 wild-type), day 2", "result": "accumulation of cells in G1 phase (2N)"}, {"measurement": "cell cycle distribution", "setting": "breast cancer lines; MDA-MB-468 and SKBR-3, day 7 or day 10", "result": "decrease in G1 (2N) phase"}, {"measurement": "cell cycle distribution", "setting": "breast cancer lines; ZR-75-1 cells (p53 wild-type)", "result": "minor effects on cell cycle distribution"}, {"measurement": "tumor growth inhibition (TGI)", "setting": "MDA-MB-468 xenograft; 100 mg/kg BID", "result": 83, "unit": "%"}, {"measurement": "efficacy", "setting": "MDA-MB-468 xenograft; 100 mg/kg QD", "result": "not efficacious"}, {"measurement": "nature of the cytostatic/cytotoxic response upon longer exposure", "setting": "GBM cell lines [9]", "result": "did not change"}]}, {"smiles": "O=C(NC[C@H](O)CN1CCc2ccccc2C1)c1cc(NC2COC2)ncn1", "note": "[Compound E]", "values": [{"measurement": "inhibitory potency compared with Compound C", "setting": "PRMT5/MEP50", "result": "similar"}, {"measurement": "selectivity for PRMT5/MEP50 over the other methyltransferases", "setting": "[1]", "result": "Selectivity for PRMT5/MEP50 over the other methyltransferases was also observed"}]}, {"smiles": "CC(=O)N1CCC(Nc2cc(C(=O)NC[C@H](O)CN3CCc4ccccc4C3)ccn2)CC1", "note": "[Compound F]", "values": [{"measurement": "inhibitory potency compared with Compound C", "setting": "PRMT5/MEP50", "result": "similar"}, {"measurement": "selectivity for PRMT5/MEP50 over the other methyltransferases", "setting": "[1]", "result": "Selectivity for PRMT5/MEP50 over the other methyltransferases was also observed"}]}, {"smiles": "COc1ccc(C2=N[C@@H](c3ccc(Cl)cc3)[C@@H](c3ccc(Cl)cc3)N2C(=O)N2CCNC(=O)C2)c(OC(C)C)c1", "note": "[Nutlin-3, reference compound]", "values": [{"measurement": "p53 and p21 expression", "setting": "[7]", "result": "increased p53 and p21 expression to similar levels"}]}]}
